The values that follow come from patent US20050256103A1, “Indole derivative having piperidine ring” (Eisai Co., Ltd., priority 2004, published 2005).

One experiment addresses T1, serotonin 1A receptor (Mus musculus, UniProt Q64264).
T1 construct: into the rectum of CD-1 (ICR) male mice (25-45 g); from tissue; host or cells: living CD-1 (ICR) male mice (in vivo)
T1 sequence (Q64264 1-421): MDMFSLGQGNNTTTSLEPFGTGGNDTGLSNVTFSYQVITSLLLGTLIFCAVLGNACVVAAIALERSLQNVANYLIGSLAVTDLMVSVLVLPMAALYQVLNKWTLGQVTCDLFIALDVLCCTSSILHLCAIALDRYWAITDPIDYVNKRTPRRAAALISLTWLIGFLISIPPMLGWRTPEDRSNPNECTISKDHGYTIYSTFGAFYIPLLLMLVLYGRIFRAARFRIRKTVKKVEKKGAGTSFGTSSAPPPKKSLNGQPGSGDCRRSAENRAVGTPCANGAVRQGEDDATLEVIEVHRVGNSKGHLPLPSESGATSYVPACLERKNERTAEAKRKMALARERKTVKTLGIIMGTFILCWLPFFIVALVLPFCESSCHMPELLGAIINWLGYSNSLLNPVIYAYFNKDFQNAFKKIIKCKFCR
As to the kind of experiment: Antagonistic effect on serotonin 1A receptor agonist (8-OH-DPAT)-induced hypothermia in mouse. The class given is in vivo. Particulars: CD-1 (ICR) male mice; inhibition of hypothermia by 8-OH-DPAT 0.5 mg/kg sc; test substance 15 minutes before agonist. In short, it runs like this:
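CD-1 (ICR) male mice, 25-45 g; rectal temperature by thermistor probe at about 2 cm depth. Test substance given 15 min before s.c. 8-OH-DPAT […]; antagonism scored as inhibition of the induced hypothermia.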

Experiment [1] concerns urinary reflex of Sprague-Dawley female rats. As to the kind of experiment: Inhibitory action against accentuated urinary reflex of rat due to destruction of the superior colliculus (cystometrogram). The class given is in vivo. Particulars: dose 0.3 mg/kg, iv; rat with superior colliculus lesion. The source says:
(1) In the present test, Sprague-Dawley female rates (200-350 g) were used. The rats were subjected to median incision of the abdomen under anesthesia. Thereafter, a hole with a minor diameter was made on the head portion of the bladder, and a catheter used for measurement of an intravesical pressure was placed therein. A catheter used for administration of a test substance was placed in the femoral vein. These catheters were fixed at the occipital region of the rat through the subcutis. One day later, the urinary reflex of the rats was measured with a cystometrogram. Thereafter, the rats were fixed on a brain stereotaxis apparatus under anesthesia, and then subjected to median incision of the scalp. […] Thereafter, electric current was applied (65° C., 4 minutes), so as to damage the brain tissues. After completion of the operation, when the rat awakened from anesthesia, cystometrogram was conducted again to confirm the enhanced state of urinary reflex. A test substance was administered through the catheter placed in the femoral vein, and the action of the test substance to the urinary reflex was evaluated. In addition, the effects of several test substances were compared using the maximal reaction (Emax).

For `CNC(=O)c1ccc2ccn(C3CCN(CCc4c(OC)ccc5c4OC(C)(C)CC5=O)CC3)c2c1` [Compound 20, 1-{1-[2-(7-methoxy-2,2-dimethyl-4-oxochroman-8-yl)ethyl]piperidin-4-yl}-N-methyl-1H-indole-6-carboxamide], the ED50 at serotonin 1A receptor is recorded as 0.03 mg/kg, sc. Besides, the “Bladder capacity Emax” value in experiment [1] is on record as 94%.
